Measurements published in the CheMixHub viscosity set.
Values joined by “and” are separate entries in the source; they are usually repeats but may differ in a detail not shown here. Identical values can stand only once.

Assays:
[1] = xn = mol fraction of the nth substance listed

C1CCC(C2CCCCC2)CC1
102 kPa
Conditions	viscosity [mPa·s]
293.15 K	4.06
303.15 K	3.18
313.15 K	2.56
323.15 K	2.1

CC(=O)[O-].C[N+]1(CC2CO2)CCCC1=O (stereo not given)
101 kPa
Conditions	viscosity
293.15 K	6.55 mPa·s
298.15 K	5.55 mPa·s
303.15 K	4.77 mPa·s
308.15 K	4.13 mPa·s and 4.14 mPa·s
313.15 K	3.62 mPa·s

CCCCC(=O)O
Conditions	viscosity [mPa·s]
298.15 K, 101 kPa	1.97

CCCCCCCCCCCCCC(=O)OCC
100 kPa
Conditions	viscosity [mPa·s]
308.15 K	3.322
318.15 K	2.699
323.15 K	2.451

CCCCCCCCCCCCOC(C)=O
Conditions	viscosity [mPa·s]
303.15 K, 101.3 kPa	3.089

CCCCCCCC[N+](C)(CCCCCCCC)CCCCCCCC.[Cl-]
101 kPa
Conditions	viscosity [mPa·s]
298.15 K	2391
303.15 K	1602
308.15 K	1067
313.15 K	766.1
318.15 K	568.9

CCCCO
Conditions	viscosity
293.15 K, 100 kPa	2.873 mPa·s and 2.61 mPa·s and 2.868 mPa·s
293.15 K, 101 kPa	2.929 mPa·s and 2.868 mPa·s
293.15 K, 101.33 kPa	2.9 mPa·s
298 K, 101.3 kPa	2.507 mPa·s
298 K, 101.33 kPa	2.52 mPa·s
298.15 K, 101.3 kPa	2.442 mPa·s
303 K, 101.33 kPa	2.095 mPa·s
303.15 K, 101 kPa	2.121 mPa·s and 2.002 mPa·s and 2.12 mPa·s
303.15 K, 101.3 kPa	2.129 mPa·s
308 K, 101.3 kPa	1.903 mPa·s
308.15 K, 101.3 kPa	1.856 mPa·s
308.15 K, 101.33 kPa	1.929 mPa·s and 1.949 mPa·s
313 K, 101.3 kPa	1.62 mPa·s
313.15 K, 101 kPa	1.7 mPa·s and 1.687 mPa·s
313.15 K, 101.3 kPa	1.692 mPa·s and 1.817 mPa·s
318 K, 101.3 kPa	1.456 mPa·s
318.15 K, 100 kPa	1.563 mPa·s
318.15 K, 101.33 kPa	1.487 mPa·s
323 K, 100 kPa	1.215 mPa·s
323 K, 101.3 kPa	1.334 mPa·s
323.15 K, 101 kPa	1.361 mPa·s and 1.329 mPa·s
323.15 K, 101.33 kPa	1.393 mPa·s and 1.393 mPa·s and 1.09 mPa·s

CCCCOCCOCCOCCCC
101.3 kPa
Conditions	viscosity [mPa·s]
298.15 K	2.16
308.15 K	1.762
318.15 K	1.408

CCCC[n+]1ccc(C)cc1.N#C[S-]
101 kPa
Conditions	viscosity [mPa·s]
298.15 K	85.69
308.15 K	51.75
318.15 K	33.88

CCOC(=O)C(Cl)(Cl)Cl
Conditions	viscosity [mPa·s]
323.15 K, 101 kPa	1.037

CCOC(=O)Cn1cc[n+](C)c1.[Cl-]
Conditions	viscosity [mPa·s]
298.15 K, 101 kPa	348.6

CCn1cc[n+](C)c1.O=C([O-])C(F)(F)C(F)(F)C(F)(F)C(F)(F)F
101 kPa
Conditions	viscosity [mPa·s]
298.15 K	107.5
308.15 K	65.87
318.15 K	43.09

CSC
Conditions	viscosity [mPa·s]
293.15 K, 101 kPa	0.307

Cc1cccnc1
Conditions	viscosity [mPa·s]
298.15 K, 101 kPa	0.8723

Fc1c(F)c(F)c(F)c(F)c1F
viscosity [mPa·s]
Conditions	293.15 K	298.15 K	303.15 K	308.15 K	313.15 K	318.15 K	323.15 K
101 kPa	0.951	–	0.793	–	0.664	–	0.591
101.33 kPa	0.9446	0.8695	–	0.7631	–	0.6708	–

NCCN1CCNCC1
100 kPa
Conditions	viscosity [mPa·s]
298.15 K	14.48
308.15 K	11.34
318.15 K	7.1

NCCNCCN
101.33 kPa
Conditions	viscosity [mPa·s]
298.15 K	5.52
308.15 K	3.865
318.15 K	3.048
323.15 K	2.698

CC1(C)S[C@@H]2[C@H](NC(=O)[C@H](N)c3ccc(O)cc3)C(=O)N2[C@H]1C(=O)O + O
viscosity [mPa·s], [1], 101 kPa
Conditions	x1 = 9e-06	x1 = 1.8e-05	x1 = 2e-05	x1 = 3.2e-05	x1 = 3.6e-05	x1 = 5e-05	x1 = 6.8e-05
305.15 K	0.7741	0.7672	0.7642	0.7659	0.7708	0.7668	0.7686
310.15 K	0.7042	0.7023	0.6984	0.6991	0.7032	0.7014	0.7026
315.15 K	0.6458	0.6448	0.6386	0.6392	0.6469	0.6401	0.6421

CCCC(N)=O + O
[1], 298.15 K, 101 kPa
Conditions	viscosity [mPa·s]
x1 = 0.00213	0.906
x1 = 0.0179	1.122
x1 = 0.0403	1.458
x1 = 0.04319	1.511

Cc1cccnc1 + O
[1], 298.15 K, 101 kPa
Conditions	viscosity [mPa·s]
x1 = 0.02104	1.202
x1 = 0.04558	1.604
x1 = 0.2966	3.291
x1 = 0.6032	1.972

O=S(=O)([O-])[O-].O=S(=O)([O-])[O-].O=S(=O)([O-])[O-].[Al+3].[Al+3] + O
viscosity [mPa·s], [1], 101 kPa
Conditions	298.15 K	323.15 K
x1 = 0.0016	1.12	0.597
x1 = 0.00272	–	0.734
x1 = 0.00291	–	0.743
x1 = 0.0032	1.36	0.695
x1 = 0.00384	–	0.839
x1 = 0.00482	–	0.96
x1 = 0.0053	1.93	0.925
x1 = 0.005932	–	1.074
x1 = 0.0071	2.44	1.15
x1 = 0.007109	–	1.242
x1 = 0.008241	–	1.431
x1 = 0.0087	3.17	1.44
x1 = 0.009379	–	1.686
x1 = 0.0105	4.21	1.82
x1 = 0.0106	–	1.989
x1 = 0.01197	–	2.398
x1 = 0.0123	5.95	2.41
x1 = 0.01327	–	2.919
x1 = 0.0145	8.96	3.43
x1 = 0.0147	–	3.571
x1 = 0.0154	10.5	3.96
x1 = 0.01608	–	4.31
x1 = 0.0161	11.8	4.33
x1 = 0.017	14.4	5.17
x1 = 0.01732	–	4.975
x1 = 0.0184	18	6.12
x1 = 0.01889	–	6.121

CCOC(=O)C(Cl)(Cl)Cl + O=C(O)C(Cl)(Cl)Cl
[1], 323.15 K, 101 kPa
Conditions	viscosity [mPa·s]
x1 = 0.2358	3.172
x1 = 0.4086	2.346
x1 = 0.5988	1.742
x1 = 0.7928	1.334

CCCC[N+](CCCC)(CCCC)CCCC.[Br-] + OCC(O)CO
viscosity [mPa·s], [1], x1 = 0.2
Conditions	296.97 K	298 K	302.02 K	307.2 K	312.13 K	317.31 K	322.23 K
101 kPa	892.4	–	671.4	484.4	331.4	238	195.5
101.33 kPa	–	333.9	–	–	–	–	–

CCCC[N+](CCCC)(CCCC)CCCC.[Br-] + OCCO
[1]
Conditions	viscosity [mPa·s]
293.15 K, 101 kPa, x1 = 0.333	187.3
298 K, 100 kPa, x2 = 0.75	98
298 K, 101.33 kPa, x1 = 0.2	41.51
298.15 K, 100 kPa, x1 = 0.333	188
298.15 K, 101 kPa, x1 = 0.2	69
303.15 K, 100 kPa, x1 = 0.2	161.7
303.15 K, 101 kPa, x1 = 0.2	53.8
303.15 K, 101 kPa, x1 = 0.333	124
308 K, 100 kPa, x2 = 0.75	57
308.15 K, 101 kPa, x1 = 0.2	42.6
313.15 K, 100 kPa, x1 = 0.2	102.1
313.15 K, 101 kPa, x1 = 0.2	31.2
313.15 K, 101 kPa, x1 = 0.333	84.3
318 K, 100 kPa, x2 = 0.75	35
318.15 K, 101 kPa, x1 = 0.2	27.8
323.15 K, 100 kPa, x1 = 0.2	61.85
323.15 K, 101 kPa, x1 = 0.2	21.7
323.15 K, 101 kPa, x1 = 0.333	58.7

CCCC[N+](CCCC)(CCCC)CCCC.[Br-] + OCCOCCO
viscosity [mPa·s], [1]
Conditions	293.15 K	303.15 K	313.15 K	323.15 K
100 kPa, x1 = 0.2	–	265.6	165.5	92.86
101 kPa, x2 = 0.667	203.9	150.6	87.28	57.39

CCCC[N+](CCCC)(CCCC)CCCC.[Br-] + OCCOCCOCCO
[1], 100 kPa, x1 = 0.2
Conditions	viscosity [mPa·s]
303.15 K	279.6
313.15 K	176.9
323.15 K	101.6

C1CCC(C2CCCCC2)CC1 + c1ccc2c(c1)CCCC2
viscosity [mPa·s], [1], 102 kPa
Conditions	x2 = 0.1226	x2 = 0.2394	x2 = 0.3504	x2 = 0.4561	x2 = 0.5573	x2 = 0.6537	x2 = 0.747	x2 = 0.8343	x2 = 0.9189
293.15 K	3.67	3.35	3.08	2.87	2.7	2.55	2.44	2.34	2.28
303.15 K	2.91	2.67	2.48	2.33	2.2	2.09	2	1.93	1.88
313.15 K	2.36	2.19	2.04	1.93	1.83	1.75	1.68	1.62	1.58
323.15 K	1.95	1.82	1.71	1.62	1.54	1.48	1.43	1.38	1.35

C=C1CCC2CC1C2(C)C (stereo not given) + c1ccccc1
viscosity [mPa·s], [1], 101 kPa
Conditions	x2 = 0.3052	x2 = 0.4296	x2 = 0.5395	x2 = 0.6373	x2 = 0.7249	x2 = 0.8039	x2 = 0.8754	x2 = 0.9405
303.15 K	1.187	0.998	0.867	0.759	0.691	0.646	0.614	0.593
308.15 K	1.106	0.936	0.807	0.71	0.655	0.619	0.587	0.566
313.15 K	1.022	0.866	0.749	0.658	0.614	0.583	0.556	0.537

CCCCC(=O)O + c1ccccc1
[1], 298.15 K, 101 kPa
Conditions	viscosity [mPa·s]
x1 = 0.04	0.62
x1 = 0.078	0.639
x1 = 0.12	0.662
x1 = 0.16	0.687
x1 = 0.34	0.825
x1 = 0.43	0.92
x1 = 0.53	1.062
x1 = 0.75	1.436

Cc1cccc(N)c1 + c1ccccc1
[1], 303.15 K, 101.33 kPa
Conditions	viscosity [mPa·s]
x1 = 0.196	0.695
x1 = 0.405	0.87
x1 = 0.598	1.15
x1 = 0.795	1.54

NC(N)=S + c1ccncc1
[1], 298.15 K, 101 kPa
Conditions	viscosity [mPa·s]
x1 = 0.0572	1.251
x1 = 0.13	2.019
